Test systems include 786-0 renal; IGROV1 ovarian; MOLT-4 leukemia; OVCAR-4 ovarian; SF-539 CNS; SNB-75 CNS; U251 CNS.
Assay in all cases: inhibition of tumour cell growth, NCI panel, 48 h

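How tested: cells in 96-well plates exposed to compound for 48 hours at five concentrations. GI50 marks 50% less growth. At the TGI there is no net growth.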

Drawing on PubChem BioAssay (NCI), this text covers TGI and GI50 for ten molecules.

As for `C[C@]12CCC3=NCCN3C1=CC[C@@H]1[C@@H]2CC[C@@]2(C)[C@H]1CC[C@]2(C)O`, the TGI was 32.4 µM with 786-0 renal; over 100 µM with IGROV1 ovarian; over 100 µM in the assay with MOLT-4 leukemia; over 100 µM in the assay on OVCAR-4 ovarian; 80 µM with SF-539 CNS; over 100 µM in the assay on SNB-75 CNS. In the assay with U251 CNS, the TGI is over 100 µM.

As for `O=C(c1ccccc1)C(Br)C(Br)c1ccccc1` (stereo not drawn), the GI50 with 786-0 renal was 15.2 µM; in the assay on IGROV1 ovarian, 2.94 µM; in the assay on OVCAR-4 ovarian it was 1.66 µM; in the assay on SF-539 CNS, 10.7 µM; with SNB-75 CNS it was 12.1 µM; in the assay with U251 CNS it was 8.15 µM. Moreover, the TGI in the assay on 786-0 renal amounted to 28.7 µM; with IGROV1 ovarian it was 12.2 µM; with OVCAR-4 ovarian, 3.08 µM; in the assay with SF-539 CNS it was 22.6 µM; with SNB-75 CNS, 25.6 µM; in the assay with U251 CNS, 20.9 µM.

Regarding `O=C1CCS/C(=N/S(=O)(=O)c2ccc(N3N=C4c5ccccc5CC4C3c3cccs3)cc2)N1Cc1ccccc1` (stereo not drawn), the GI50 with 786-0 renal was 17.1 µM; in the assay with IGROV1 ovarian, 17.4 µM; in the assay with MOLT-4 leukemia, 47 µM; in the assay on OVCAR-4 ovarian, 49.3 µM; in the assay on SF-539 CNS, 21.8 µM; with SNB-75 CNS it was 30.2 µM. The GI50 in the assay on U251 CNS is 14.4 µM. Moreover, the TGI with 786-0 renal is 32.4 µM; with IGROV1 ovarian it was 52.4 µM; in the assay on MOLT-4 leukemia, over 100 µM; with OVCAR-4 ovarian it was over 100 µM; in the assay with SF-539 CNS, 44.4 µM; in the assay with SNB-75 CNS, 78.7 µM. The molecule also came in with a TGI in the assay on U251 CNS of 32.1 µM.

For `O=C(Oc1ccc2c(c1)CN(Cc1ccccc1)CO2)c1ccccc1`, the TGI came to 30.7 µM with 786-0 renal; 27 µM in the assay on IGROV1 ovarian; 54.1 µM in the assay on MOLT-4 leukemia; 32.8 µM with OVCAR-4 ovarian; 32.3 µM in the assay on SF-539 CNS; 32.5 µM in the assay on SNB-75 CNS. The molecule also registered a TGI with U251 CNS of 31.2 µM.

On to `NC(N)=N/N=C/c1c(-c2ccc(Cl)c([N+](=O)[O-])c2)nc2sc3ccccc3n12`, for which the GI50 in the assay on 786-0 renal is 0.951 µM; in the assay on IGROV1 ovarian it was 11.8 µM; in the assay on U251 CNS, 0.0951 µM. Besides, the TGI in the assay on 786-0 renal was 1.75 µM; in the assay with IGROV1 ovarian, over 50 µM; with U251 CNS, 0.177 µM.

For `c1cncc(C2ONC3=NCCN32)c1` (stereo not drawn), the GI50 is 6.22 µM in the assay with 786-0 renal; 24 µM in the assay on IGROV1 ovarian; 28.4 µM in the assay with MOLT-4 leukemia; over 100 µM in the assay with OVCAR-4 ovarian; 28.9 µM in the assay on SF-539 CNS; 22.4 µM with SNB-75 CNS. The GI50 in the assay with U251 CNS is 16.5 µM. Besides, the TGI was 39.2 µM with 786-0 renal; over 100 µM in the assay with IGROV1 ovarian; 56.6 µM with MOLT-4 leukemia; over 100 µM in the assay with OVCAR-4 ovarian; over 100 µM in the assay with SF-539 CNS; 98.1 µM in the assay with SNB-75 CNS. Moreover, the TGI with U251 CNS worked out at 64.5 µM.

With `Oc1ccccc1C=Nc1nc(OCc2ccccc2)nc2[nH]ncc12`, the GI50 is 34.8 µM with 786-0 renal; 34.8 µM in the assay with IGROV1 ovarian; 21.5 µM in the assay with MOLT-4 leukemia; 23.5 µM in the assay with OVCAR-4 ovarian; 22.1 µM in the assay on SF-539 CNS; 22.4 µM with U251 CNS. The TGI is over 100 µM in the assay with 786-0 renal; over 100 µM in the assay on IGROV1 ovarian; over 100 µM with MOLT-4 leukemia; 69.6 µM with OVCAR-4 ovarian; 43 µM with SF-539 CNS; 62 µM in the assay with U251 CNS.

For the molecule `Nc1ncc(C2[C@H](CNC(=O)c3cc(Br)c[nH]3)C(CNC(=O)c3cc(Br)c[nH]3)[C@@H]2c2cnc(N)[nH]2)[nH]1` (stereo partly drawn), the GI50 was over 50 µM in the assay on 786-0 renal; over 50 µM in the assay on IGROV1 ovarian; 48.4 µM in the assay on MOLT-4 leukemia; over 50 µM in the assay on OVCAR-4 ovarian; 8.79 µM in the assay with SF-539 CNS; over 50 µM in the assay on U251 CNS. The TGI with 786-0 renal, with IGROV1 ovarian, with MOLT-4 leukemia, in the assay on OVCAR-4 ovarian, with SF-539 CNS and in the assay on U251 CNS was over 50 µM throughout.

As to `N#CC(NC(=O)CCl)=C(Cl)Cl`, the GI50 with 786-0 renal was 2.13 µM; with IGROV1 ovarian it was 1.18 µM; with OVCAR-4 ovarian, 1.76 µM; in the assay on SF-539 CNS, 1.84 µM; with SNB-75 CNS, 1.63 µM; in the assay with U251 CNS, 1.75 µM. The TGI with 786-0 renal is 5.87 µM; in the assay with IGROV1 ovarian, 2.92 µM; in the assay with OVCAR-4 ovarian it was 3.6 µM; in the assay with SF-539 CNS, 3.53 µM; in the assay with SNB-75 CNS it was 4.27 µM; in the assay with U251 CNS it was 3.79 µM.

`NC(=O)c1ncn(C2OC(CO)C(O)C2O)c1N` (stereo not drawn): the GI50 in the assay on 786-0 renal, with IGROV1 ovarian, with OVCAR-4 ovarian, in the assay on SF-539 CNS, in the assay on SNB-75 CNS and in the assay on U251 CNS was over 100 µM throughout. Also, the TGI with 786-0 renal, in the assay with IGROV1 ovarian, in the assay on OVCAR-4 ovarian, with SF-539 CNS, with SNB-75 CNS and with U251 CNS was over 100 µM each time.
